In patent US12433911B2, “Preparation and storage of liposomal RNA formulations suitable for therapy” (BIONTECH SE, priority 2019, dated 2025):
Read-outs that look alike come from different tables or passages of the source.

How the values were obtained:
[1] = Buffer, pH, NaCl and sucrose stability studies at +25° C. and −15° C. (PCS, pH, capillary electrophoresis); settings: for stability of the RNA in RNA lipoplexes: Example 2.1, accelerated conditions (25°); for preservation of the particle size and the polydispersity: Example 2.1, frozen state (−15° C.)
Procedure: RNA lipoplexes are incubated under accelerated conditions (25° C.) in the presence of an exemplarily cryoprotectant. RNA integrity was analyzed by capillary electrophoresis over 60 days. Additionally, RNA lipoplexes are incubated under at the anticipated storage conditions (−15° C.) in the presence of an exemplarily cryoprotectant for up to two years. RNA integrity was analyzed by capillary electrophoresis.
The respective RNA lipoplexes were investigated under accelerated conditions (25° C.) and in the frozen state (−15° C.).
RNA lipoplexes were formed with liposomes containing 2 mM of acetic acid. The respective RNA lipoplexes were investigated under accelerated conditions (25° C.) and in the frozen state (−15° C.).
Method: All RNA lipoplexes were automatically prepared in a single batch and the different concentrations of HEPES were adjusted by the addition of a cryoprotectant solution containing different amounts of HEPES. Particle sizes and polydispersity of RNA lipolexes were analyzed by photon correlation spectroscopy (PCS) measurements. Additionally, the RNA integrity was analyzed by capillary electrophoresis and the pH was measured.
In the following study, the concentration of HEPES which is required for stabilization of the pH of the RNA lipoplexes was investigated. RNA lipoplexes were formed with liposomes containing 5 mM of acetic acid and different concentrations of HEPES were adjusted by using different cryoprotectant solutions and the respective RNA lipoplexes were investigated under accelerated conditions (25° C.). The pH range from pH 6.2 to 7.2 was tested.
Methods: As a representative cryoprotectant, sucrose was investigated at a concentration of 10% (w/v). A detailed description of the experiments is given in section 2.
In the following study, the long-term stability of RNA lipoplexes in the frozen state was investigated with the combination of the reduced concentration of NaCl and Sucrose in the presence of either HEPES or Histidine as a buffering agent at a pH of 6.5.

[2] = Freezing of RNA lipoplexes with cryoprotectants and NaCl, particle size; assay type: physicochemical; settings: for preservation of particle size: single freezing step, 0 to 60 mM NaCl, 20% (w/v) cryoprotectant
Excerpt: Methods: Different compounds representative for monosaccharides (glucose and sorbitol), disaccharides (sucrose and trehalose), amino acids (arginine, prolin), triols (glycerin) as well as cryoprotectant systems containing mixtures of different sugars (mannitol and sucrose) were investigated in order to identify suited cryoprotectants (FIGS. 25 and 26). Therefore RNA lipoplexes were frozen in the presence of increasing concentration of these compounds. In order to identify minimum content of cryoprotectant at a certain concentration of NaCl, RNA lipoplexes were frozen in the presence of increasing amounts of sucrose or trehalose as representative cryoprotectants (Table 7). The samples were initially frozen a single time in order to determine the concentration range of cryoprotectant to be investigated in detail. In a third experiment, the efficacy of stabilization of the particle size was challenged by freezing of the RNA lipoplexes up to 10 times in the presence of the cryoprotectant trehalose (Table 8).

[3] = DOPE and DOPE/DOTMA solubility in ethanol (HPLC); assay type: physicochemical; settings: for DOPE solubility in ethanol comprising 220 mM DOTMA, mM after Filtration: DOTMA/DOPE 66:33 in ethanol abs.
Procedure: DOPE and DOPE/DOTMA solubility in ethanol was investigated by preparing 300 mM DOPE or 330 mM DOPE/DOTMA (66:33) solutions in ethanol. The lipids were dissolved by incubating the lipid solutions at 37° C. for 20 minutes. The DOPE solutions were centrifuged at 17000 G for 1 h and the DOPE concentration was measured in the supernatant by HPLC. The DOTMA/DOPE solutions were filtered through a 0.22 μm PES syringe filter and the lipid concentration was measured in the filtrate by HPLC.
Lipid concentration in the different liposome formulations were measured by HPLC (Agilent technologies. Santa Clara. USA) using a Sunfire C18 2.5 μm 4.6×75 mm column (Waters, Massachusetts USA) and a wave length of 205 nm. Mobile phase A was a mixture of 70% methanol/30% isopropanol/0.1% TFA, mobile phase B was a mixture of 55% methanol/15% isopropanol/30% water/0.1% TFA. Liposomes samples were or not diluted with water to 3 mM total lipid concentration.
It has been tested if DOPE-containing solutions of higher concentration can be prepared (in the supersaturated state) and used for ethanol injection for liposome manufacturing (next section).

[4] = Procedure: The samples were frozen at −30° C. and then transferred to the respective temperature for long-term storage (either −15 or −30° C.). After defined storage time, samples were analyzed and preservation of the colloidal stability was analyzed by measuring the particle size using PCS. These experiments were performed at a total RNA concentration of 0.05 mg/mL.
Method: To investigate the minimum content of representative cryoprotectants as sucrose, trehalose, glucose and mixtures including dextran required for long-term storage at −20° C., RNA lipoplexes were frozen at a fixed cryoprotectant content in combination with varying NaCl concentrations. For monomeric or dimeric molecular cryoprotectants as glucose, sucrose, and trehalose a concentration of 22% (w/v) was adjusted. These formulations were frozen and stored at −15 to −40° C. and long-term stability was investigated by measuring the particle size using PCS after defined storage time.
The samples were frozen and stored at −20° C. After defined storage time, samples were analyzed and preservation of the colloidal stability was analyzed by measuring the particle size.

[5] = RNA integrity of RNA lipoplexes under stress conditions (40° C.), capillary electrophoresis; settings: 21 days, absence of cryoprotectant, by buffering system
Method: RNA lipoplexes are initially incubated under stress conditions (40° C.) in the absence of cryoprotectant. RNA integrity was analyzed by capillary electrophoresis over 21 days. In order to investigate the optimum pH range in the presence of an exemplary cryoprotectant, RNA lipoplexes were incubated in the presence of HEPES and sucrose at 40° C. and RNA integrity was analyzed for 21 days.
RNA integrity was analyzed as a key physicochemical parameter over 21 days.

[6] = Example 2.2, accelerated conditions (25° C.)
[7] = Example 2.2, frozen state (−15° C.)
[8] = compound tested as cryoprotectant
[9] = 70 mM NaCl, up to 10 times freezing

O=S(=O)(O)CCN1CCN(CCO)CC1 [HEPES, 2-[4-(2-hydroxyethyl)piperazin-1-yl]ethanesulfonic acid]
HEPES concentration sufficient for stabilization of the adjusted pH ([1]; 25° C.): ≥ 2.5 mM
stability of the RNA in RNA lipoplexes [1]: best stability
preservation of the particle size and the polydispersity [1]: equally suited
stabilization of the RNA integrity [1, 6]: comparable stabilization of the RNA integrity
stabilization of the RNA integrity [1, 7]: comparable stabilization of the RNA integrity
RNA integrity ([1]; Example 4.1, accelerated +25° C., vs current formulation 20 mM NaCl and 22% sucrose): better preserved

O=S(=O)(O)CCN1CCOCC1 [MES, 2-(N-morpholino)ethanesulfonic acid]
stabilization of the RNA integrity [1]: comparable stabilization of the RNA integrity

N=C(N)NCCC[C@H](N)C(=O)O [arginine]
stabilization of RNA lipoplexes during freezing [2, 8]: clearly destabilizes the RNA lipoplexes

CCCCCCCC/C=C\CCCCCCCC(=O)OC[C@H](COP(=O)(O)OCCN)OC(=O)CCCCCCC/C=C\CCCCCCCC [DOPE, 1,2-di-(9Z-octadecenoyl)-sn-glycero-3-phosphoethanolamine]
DOPE solubility in ethanol comprising 220 mM DOTMA, mM after Filtration ([3]; Corden Pharma, F0624): 93 mM
DOPE solubility in ethanol comprising 220 mM DOTMA, mM after Filtration ([3]; Corden Pharma, W0650): 106 mM
DOPE solubility in ethanol comprising 220 mM DOTMA, mM after Filtration ([3]; Merck, MK2885-C): 94 mM
DOPE solubility in ethanol comprising 220 mM DOTMA, mM after Filtration ([3]; NOF, 14099612): 103 mM
DOPE solubility in ethanol ([3]; Provider Corden Pharma, Charge Nr. F0624): 56 mM
DOPE solubility in ethanol ([3]; Provider Corden Pharma, Charge Nr. W0650): 59 mM
DOPE solubility in ethanol ([3]; Provider Merck, Charge Nr. MK2885-C): 59 mM
DOPE solubility in ethanol ([3]; Provider NOF, Charge Nr. 14099612): 63 mM

OC[C@H]1O[C@@](CO)(O[C@H]2O[C@H](CO)[C@@H](O)[C@H](O)[C@H]2O)[C@@H](O)[C@@H]1O [sucrose]
preservation of particle size [2]: acceptable preservation of particle size
stabilization efficacy between cryoprotectants [4]: No difference

O=C(O)[C@@H]1CCCN1 [proline]
stabilization of RNA lipoplexes during freezing [2]: can be used as cryoprotectants

O=P(O)(O)O [sodium phosphate]
stabilization of the RNA (RNA integrity) [5]: comparable results

OCC(O)CO [Glycerin, glycerin]
stabilization of RNA lipoplexes during freezing [2, 8]: can be used as cryoprotectants

OC[C@H]1O[C@H](O[C@H]2O[C@H](CO)[C@@H](O)[C@H](O)[C@H]2O)[C@H](O)[C@@H](O)[C@@H]1O [trehalose]
trehalose sufficient for stabilization of particle characteristics ([2]; 50 mM NaCl, even after 10 times freezing): ≥ 12.5%
trehalose required for exact preservation of the particle size [2, 9]: ≥ 22.5%
trehalose required for minimum stabilization [2, 9]: ≥ 12.5%
exact preservation of the particle size ([2]; 90 mM NaCl, highest investigated concentration 27.5%): could not be achieved
trehalose required for minimum stabilization ([2]; 90 mM NaCl, up to 10 times freezing): ≥ 15.0%
preservation of particle size [2]: acceptable preservation of particle size
stabilization efficacy between cryoprotectants [4]: No difference

OC[C@@H](O)[C@@H](O)[C@H](O)[C@@H](O)CO [sorbitol]
stabilization of RNA lipoplexes during freezing [2, 8]: can be used as cryoprotectants
stabilization efficacy compared with the other cryoprotectants ([2]; freezing): lower

N[C@@H](Cc1c[nH]cn1)C(=O)O [Histidine, histidine]
stability of the RNA in RNA lipoplexes [1]: lower stability
preservation of the particle size and the polydispersity [1]: equally suited
stabilization of the RNA integrity [1, 6]: slightly reduced stability
stabilization of the RNA integrity [1, 7]: comparable stabilization of the RNA integrity

O=C([O-])[O-].[Na+].[Na+] [carbonate, sodium carbonate]
stabilization of the RNA (RNA integrity) [5]: did not result in comparable stabilization of the RNA
